Source: ChEMBL document CHEMBL3352417, “Confronting the challenges of discovery of novel antibacterial agents” (Bioorg Med Chem Lett, 2014)
≈ marks a conversion by molar mass, not a printed value. Values belong to the molecule of their own block, whether it stands above or below them.

Experiments:
[1] = Inhibition of Enterococcus faecalis DNA gyrase subunit B
[2] = Inhibition of Enterococcus faecalis ParE
Streptococcus pneumoniae = experiment: Antimicrobial activity against Streptococcus pneumoniae; format: functional
Staphylococcus aureus = experiment: Antimicrobial activity against Staphylococcus aureus; format: functional
[3] = target: Voltage-gated inwardly rectifying potassium channel KCNH2 (Homo sapiens, UniProt Q12809); experiment: Inhibition of human ERG
[4] = Inhibition of beta-lactamase (unknown origin)

Chain of Voltage-gated inwardly rectifying potassium channel KCNH2 (Q12809 whole entry): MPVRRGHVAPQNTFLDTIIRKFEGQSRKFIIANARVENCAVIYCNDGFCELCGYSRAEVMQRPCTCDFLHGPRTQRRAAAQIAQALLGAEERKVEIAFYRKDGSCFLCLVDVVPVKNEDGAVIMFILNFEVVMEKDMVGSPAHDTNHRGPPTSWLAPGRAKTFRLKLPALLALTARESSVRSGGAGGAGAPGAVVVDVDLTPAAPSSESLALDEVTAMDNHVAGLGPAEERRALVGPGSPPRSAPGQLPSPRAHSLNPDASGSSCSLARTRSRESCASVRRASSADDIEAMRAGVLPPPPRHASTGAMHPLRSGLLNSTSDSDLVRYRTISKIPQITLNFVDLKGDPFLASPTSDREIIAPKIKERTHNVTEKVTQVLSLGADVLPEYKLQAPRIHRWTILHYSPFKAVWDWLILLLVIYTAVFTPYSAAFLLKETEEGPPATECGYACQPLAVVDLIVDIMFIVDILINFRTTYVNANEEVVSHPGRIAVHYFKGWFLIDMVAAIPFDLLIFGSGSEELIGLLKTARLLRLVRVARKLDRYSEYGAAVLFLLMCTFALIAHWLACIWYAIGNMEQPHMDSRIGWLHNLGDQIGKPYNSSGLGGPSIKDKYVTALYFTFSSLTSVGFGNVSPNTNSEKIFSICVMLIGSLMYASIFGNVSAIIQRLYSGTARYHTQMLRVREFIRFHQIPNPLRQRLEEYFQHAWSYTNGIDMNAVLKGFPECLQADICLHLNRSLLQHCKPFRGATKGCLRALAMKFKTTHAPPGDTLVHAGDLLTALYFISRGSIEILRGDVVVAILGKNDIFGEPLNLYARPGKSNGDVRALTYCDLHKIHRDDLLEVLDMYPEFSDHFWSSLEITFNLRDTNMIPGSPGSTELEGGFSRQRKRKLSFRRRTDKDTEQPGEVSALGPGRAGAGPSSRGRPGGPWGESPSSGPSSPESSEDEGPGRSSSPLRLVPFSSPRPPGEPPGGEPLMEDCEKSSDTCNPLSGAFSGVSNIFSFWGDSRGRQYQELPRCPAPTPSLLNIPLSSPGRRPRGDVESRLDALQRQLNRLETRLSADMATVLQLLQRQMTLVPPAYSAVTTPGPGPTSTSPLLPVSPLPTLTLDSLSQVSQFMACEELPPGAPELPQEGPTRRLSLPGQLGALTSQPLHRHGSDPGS

IC50 [1]: < 0.0003 µM
IC50 [2]: < 0.0003 µM
SMILES: CNc1cc(F)cc2c1[nH]c1nc(Oc3cnc(C)nc3)nc(N3CC4[C@H](N)C[C@]4(C)C3)c12 (stereo partly specified)

SMILES: O=c1ccc2ncc(=O)n3c2n1C[C@H]3CN1CCC(NCc2cc3c(cn2)OCCC3)CC1 [GEPOTIDACIN]
MIC90 (Streptococcus pneumoniae): 0.25 µg/mL (≈ 0.557 µM)
MIC90 (Staphylococcus aureus): 0.5 µg/mL (≈ 1.11 µM)
IC50 [3]: 1400 µM

IC50 [4]: 0.009 µM
SMILES: O=C(O)C[C@@H]1CC[C@H](NC(=O)Cc2cccs2)B(O)O1 [VABORBACTAM]
